Experimental findings from US20240400547A1, “2,6-PIPERIDINEDIONE COMPOUND AND APPLICATION THEREOF” (MEDSHINE DISCOVERY INC., priority 2021, published 2024) are described below.

Molecules are shown by their SMILES. pIC50: −log10 of the molar value. Counter-ions that a name gives are not always drawn.

One may read the Dmax as the largest share of the target that was removed. By pIC50 is commonly meant the negative decadic logarithm of the IC50, by convention in mol/L.

The target in one assay is T1, IKZF1 (Homo sapiens, UniProt Q13422+Q96SW2).
T1 construct: host or cells: MM.1S cells
T1 sequence (Q13422 whole entry): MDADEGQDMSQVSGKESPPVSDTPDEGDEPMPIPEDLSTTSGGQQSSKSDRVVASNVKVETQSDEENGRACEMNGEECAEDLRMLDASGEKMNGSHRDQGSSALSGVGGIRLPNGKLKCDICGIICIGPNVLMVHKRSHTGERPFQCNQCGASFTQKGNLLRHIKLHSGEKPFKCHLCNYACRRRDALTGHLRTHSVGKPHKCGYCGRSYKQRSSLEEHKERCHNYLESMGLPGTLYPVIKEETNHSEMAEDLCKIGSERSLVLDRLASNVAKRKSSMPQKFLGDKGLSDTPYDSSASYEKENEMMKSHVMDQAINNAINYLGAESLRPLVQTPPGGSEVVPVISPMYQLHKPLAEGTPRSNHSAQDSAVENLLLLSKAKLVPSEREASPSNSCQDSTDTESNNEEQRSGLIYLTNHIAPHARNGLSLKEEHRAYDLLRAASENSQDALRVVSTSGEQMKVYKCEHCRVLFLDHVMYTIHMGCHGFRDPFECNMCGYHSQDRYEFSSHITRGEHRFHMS
T1 sequence (Q96SW2 whole entry): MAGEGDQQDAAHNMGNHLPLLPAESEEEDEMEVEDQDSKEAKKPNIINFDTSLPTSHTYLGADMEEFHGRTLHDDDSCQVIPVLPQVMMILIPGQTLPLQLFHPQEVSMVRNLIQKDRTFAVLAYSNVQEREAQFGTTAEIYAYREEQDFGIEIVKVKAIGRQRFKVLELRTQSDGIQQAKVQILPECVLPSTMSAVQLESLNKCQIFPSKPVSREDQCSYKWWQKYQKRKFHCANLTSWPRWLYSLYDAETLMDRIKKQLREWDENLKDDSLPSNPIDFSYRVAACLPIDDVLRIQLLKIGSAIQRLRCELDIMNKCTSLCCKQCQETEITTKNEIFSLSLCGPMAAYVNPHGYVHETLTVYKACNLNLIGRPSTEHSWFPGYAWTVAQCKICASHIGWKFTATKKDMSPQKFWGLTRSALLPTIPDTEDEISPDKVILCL
T1 sequence (Q16531 whole entry partner): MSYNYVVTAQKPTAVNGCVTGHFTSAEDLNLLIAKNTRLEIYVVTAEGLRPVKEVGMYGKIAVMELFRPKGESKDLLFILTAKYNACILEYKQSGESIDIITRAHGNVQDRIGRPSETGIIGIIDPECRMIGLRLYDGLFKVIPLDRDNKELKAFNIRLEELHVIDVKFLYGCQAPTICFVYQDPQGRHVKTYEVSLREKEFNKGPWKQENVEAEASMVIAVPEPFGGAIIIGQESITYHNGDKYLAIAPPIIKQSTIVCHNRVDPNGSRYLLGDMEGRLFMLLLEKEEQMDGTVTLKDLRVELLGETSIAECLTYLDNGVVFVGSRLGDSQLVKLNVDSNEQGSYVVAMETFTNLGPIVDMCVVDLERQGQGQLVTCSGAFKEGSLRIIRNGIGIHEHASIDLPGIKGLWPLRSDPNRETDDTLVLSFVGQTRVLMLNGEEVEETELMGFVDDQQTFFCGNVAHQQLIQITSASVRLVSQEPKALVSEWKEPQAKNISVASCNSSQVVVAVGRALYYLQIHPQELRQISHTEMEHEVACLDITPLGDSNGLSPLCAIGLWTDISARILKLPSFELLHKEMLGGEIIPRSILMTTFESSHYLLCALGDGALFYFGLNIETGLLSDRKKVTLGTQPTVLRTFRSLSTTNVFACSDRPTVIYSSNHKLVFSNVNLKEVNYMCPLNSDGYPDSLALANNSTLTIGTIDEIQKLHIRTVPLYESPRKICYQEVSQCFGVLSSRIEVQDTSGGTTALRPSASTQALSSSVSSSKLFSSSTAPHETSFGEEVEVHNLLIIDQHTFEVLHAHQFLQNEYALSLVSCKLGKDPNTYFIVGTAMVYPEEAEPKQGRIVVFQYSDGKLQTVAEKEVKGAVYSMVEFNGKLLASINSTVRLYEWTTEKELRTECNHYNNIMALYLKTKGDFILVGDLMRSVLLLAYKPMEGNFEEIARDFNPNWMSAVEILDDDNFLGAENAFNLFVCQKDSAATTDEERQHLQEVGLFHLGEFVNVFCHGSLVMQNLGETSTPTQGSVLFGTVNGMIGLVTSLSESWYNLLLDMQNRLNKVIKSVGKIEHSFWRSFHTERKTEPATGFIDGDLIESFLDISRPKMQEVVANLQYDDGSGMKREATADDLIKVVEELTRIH
Briefly: In Cell Western of IKZF1 protein expression level in MM.1S cells. It is filed as cell-based. To be noted: IKZF1, MM.1S cells, 24 hours; for Dmax: MM1.S, read-out: Maximum degradation rate Dmax. On the procedure:
Experimental objective: The experiment aims to assess the degradation effect of the test compounds on IKZF1 and 1KZF3 proteins in MM.1S cells by evaluating the impact of the test compounds on the expression levels of IKZF1 and IZKZF3 proteins in MM.1S cells.
• Cell lines: MMN.1 S cell (sourced from ATCC; Cat. No CRL-2974) • Negative control: 0.100 DMSO.
• 1) Log phase MM.1 S cells were plated in a 96-well plate at 1.2×10^5 cells per well and cultured overnight; • 2) The next day, compounds were added with a starting concentration of 300 nM, diluted threefold across three replicate wells for 10 concentration gradients (including DMSO), and the cells were incubated for 24 hours in an incubator; • 3) The cells were centrifuged, and the supernatant was carefully removed. 150 μL of 4% paraformaldehyde fixative was added along the wall of the wells, avoiding contact with the bottom cells, and the cells were incubated at room temperature for 20 minutes; • 4) Lysis buffer was prepared by mixing 0.5 mL of 10% Triton X-100 with 49.5 mL of PBS until homogenous; • 5) 200 μL of lysis buffer was added along the well walls, again avoiding the bottom cells, and incubated on a shaker at room temperature for 5 minutes; • 6) The wells were washed four times; • 7) 150 μL of Licor […] Blocking Buffer was added along the well walls, avoiding the bottom cells, and the cells were incubated on a shaker at room temperature for 1.5 hours; • 8) Ikaros (D6N9Y) Rabbit mAb, Aiolos (D1C1E) Rabbit mAb and GAPDH mouse mAb (proteintech, 60004-1-Ig) were diluted at a 1:100 ratio using antibody dilution buffer; • 9) 50 μL of mixed antibody was added to each well with three replicate wells, and the cells were incubated overnight on a shaker at 4° C.; • 10) PBST (PBS with 0.1% Tween 20) was prepared; • 11) The primary antibodies were removed, and 200 μL of PBST was added along the well walls, avoiding the bottom cells, and the cells were incubated on a shaker at room temperature for 5 minutes; • 12) The wells were washed four times; • 13) Secondary antibody dilution buffer was prepared by adding Tween 20 to Licor […] Blocking Buffer to a final concentration of 0.2%; • 14) Fluorescent secondary antibodies were diluted in the dark at a 1:800 ratio. To 400 μL of secondary antibody dilution solution, 0.5 μL of each IRDye 800CW and IRDye 680CW (corresponding to the primary antibodies) was added. • 15) 50 μL of the diluted fluorescent secondary antibodies was added to each well and the cells were incubated on a shaker at room temperature in the dark for 60 minutes; • 16) The secondary antibodies were removed, and 200 μL of PBST was added along the well walls, avoiding the bottom cells, and the cells were incubated on a shaker at room temperature in the dark for 5 minutes; • 17) The wells were washed four times; immediately after washing, the Odyssey Gel Imaging System was used for detection at dual wavelengths of 700 nm and 800 nm.
Using GraphPad Prism 6 software, inhibition rate data was entered to fit the curve and calculate the DC50 value.

A further assay concerns OCI-LY10. Briefly: Antiproliferative effect in lymphoma cell line OCI-LY10 (CellTiter-Glo). It is filed as cell-based, human. To be noted: OCI-LY10, 5 days; for pIC50: Homo sapiens, 120 h. How it is done:
Experimental purpose: The experiment aims to evaluate the inhibitory effects of the test compounds on cell proliferation in the diffuse large B-cell lymphoma (DLBCL) cell lines OCI-LY10 and TMD-8.
The tumor cell lines were cultured in a 37° C., 5% CO2 incubator under the above culture conditions. Regular passage, and cells in logarithmic growth phase were taken for plating.
• (1) Cells were stained with trypan blue and viable cells were counted. • (2) The cell concentration was adjusted to an appropriate concentration.
• (3) 100 μL of cell suspension per well was added to the culture plate as shown above. • (4) The culture plate was cultured overnight in a 37° C., 5% CO2 incubator with 100% relative humidity.
Preparation of stock solution storage plate with 1000 times the initial concentration of the compound: The compound was serially diluted with DMSO from the highest concentration to the lowest concentration. The solution was prepared as needed each time.
4. Preparation of 1000× Compound Working Solution and Cell Treatment with Compounds • (1) Preparation of the working solution with 5 times the initial concentration of the compound: For 3-fold dilution of the compound, 30 μL of the compound from a stock solution at 1000-fold concentration was taken, and 20 μL of DMSO was added to the subsequent wells. Then, 10 μL was transferred from one concentration to the next in sequence. For 5-fold dilution of the compound, 30 μL of the compound from a stock solution at 1000-fold concentration was taken, and 24 μL of DMSO was added to the subsequent wells. Then, 6 μL was transferred from one concentration to the next in sequence. 20 μL of DMSO was added to the vehicle control. The 1000-fold concentrated compound was diluted 200 times with culture medium, i.e., 1 μL of the 1000-fold diluted compound is added to 199 μL of culture medium, and the mixture was homogenized using a pipette. • (2) Compound addition: 25 μL of the 5-fold compound solution was added to the cell culture plate. • (3) The 96-well cell plate was returned to the incubator to culture OCI-LY10 (with either 3-fold or 5-fold dilution, incubated with compounds added for 5 days) and TMD-8 (with either 3-fold or 5-fold dilution, incubated with compounds added for 5 days).
The following steps were performed according to the instructions of Promega CellTiter-Glo luminescent cell viability assay kit (Promega-G7573). • (1) CellTiter-Glo buffer was melted and brought to room temperature. • (2) CellTiter-Glo substrate was brought to room temperature. • (3) CellTiter-Glo working solution was prepared by adding 10 mL of CellTiter-Glo buffer to a vial of CellTiter-Glo substrate to dissolve the substrate. • (4) The mixture was slowly vortexed and shaken to be fully dissolved. • (5) The cell culture plate was taken out and left for 30 minutes to equilibrate to room temperature. • (6) 60 μL of CellTiter-Go working solution was added per well (equal to half the volume of cell culture medium per well). The cell plate was wrapped in aluminum foil to be protected from light. • (7) The culture plate was shaken on an orbital shaker for 2 minutes to induce cell lysis. • (8) The culture plate was left at room temperature for 10 minutes to stabilize the luminescent signal. • (9) The luminescent signal was detected on a 2104 EnVision plate reader.
The inhibition rate (IIR) of the test compound was calculated using the following formula: IR (%)=(1−RLU compound/RLU vehicle control)*100%. The inhibition rates of compounds at different concentrations were calculated in Excel, and then GraphPad Prism software was used to plot inhibition curves and calculate relevant parameters, including minimum inhibition rate, maximum inhibition rate, and IC50.

With `CC(C)(O)c1cc2nc(C3CCC(CN4CCN(CC(=O)Nc5cccc6c5ccc5onc(C7CCC(=O)NC7=O)c56)CC4)CC3)sc2cc1NC(=O)c1cccc(C(F)(F)F)n1` (centres unmarked) [Formate of WX017], at IKZF1, the DC50 was 0.0157 µM and the maximal degradation (Dmax) is 62.9%.

Regarding `CC(C)(O)c1cc2nc([C@H]3CC[C@H](CN4CCN(CC(=O)Nc5ccc6c(ccc7onc(C8CCC(=O)NC8=O)c76)c5)CC4)CC3)sc2cc1NC(=O)c1cccc(C(F)(F)F)n1` (some centres unmarked) [Formate of WX020], on IKZF1, the DC50 amounted to 0.00377 µM and the maximal degradation (Dmax) turned out to be 85.2%. Also, in the assay on OCI-LY10, the negative-log IC50 (pIC50) was 7.60 and the Maximum inhibition rate was found to be 94.96%.

Turning to `CC(C)(O)c1cc2nc([C@H]3CC[C@H](CN4CCN(CC(=O)Nc5ccc6c(C7CCC(=O)NC7=O)noc6c5)CC4)CC3)sc2cc1NC(=O)c1cccc(C(F)(F)F)n1` (some centres unmarked) [Formate of WX026], on IKZF1, the DC50 was 0.00564 µM and the greatest degradation seen (Dmax) is 84.4%.

`O=C1CCC(c2coc3cc(NC(=O)CN4CCN(C[C@H]5CC[C@H](N6CC(NC(=O)c7coc(-c8ccnc(NCC9CC9)c8)n7)C(C(F)F)N6)CC5)CC4)ccc23)C(=O)N1` (some centres unmarked) [Hydrochloride of WX002]: in the assay with OCI-LY10, the pIC50 is 6.72 and the Maximum inhibition rate is reported as 63.27%.

In the assay on OCI-LY10, `O=C1CCC(c2noc3ccc4c(NC(=O)CN5CCN(C[C@H]6CC[C@H](n7cc(NC(=O)c8coc(-c9ccnc(NCC%10CC%10)c9)n8)c(C(F)F)n7)CC6)CC5)cccc4c23)C(=O)N1` (some centres unmarked) [Hydrochloride of WX014] gave a pIC50 of 7.86 and a Maximum inhibition rate of 94.54%.

Regarding `O=C1CCC(c2noc3ccc4c(NC(=O)C(F)(F)C5CCN(CC6CCC(n7cc(NC(=O)c8coc(-c9ccnc(NCC%10CC%10)c9)n8)c(C(F)F)n7)CC6)CC5)cccc4c23)C(=O)N1` (centres unmarked) [Hydrochloride of WX018], on IKZF1, the DC50 was determined as 0.0145 µM and the Dmax turned out to be 88.8%. In the assay on OCI-LY10, the negative-log IC50 (pIC50) is 8.16 and the Maximum inhibition rate came to 99.92%.

Take `O=C1CCC(c2noc3cc(NC(=O)CN4CCN(C[C@H]5CC[C@H](n6cc(NC(=O)c7coc(-c8ccnc(NCC9CC9)c8)n7)c(C(F)F)n6)CC5)CC4)ccc23)C(=O)N1` (some centres unmarked) [Hydrochloride of WX025]: on IKZF1, the DC50 was 0.0144 µM and the Dmax is 72.2%. In the assay with OCI-LY10, the negative logarithm of the IC50 (pIC50) was 7.61 and the Maximum inhibition rate is 97.39%.

Consider `O=C1CCC(c2noc3c(NC(=O)CN4CCN(C[C@H]5CC[C@H](n6cc(NC(=O)c7coc(-c8ccnc(NCC9CC9)c8)n7)c(C(F)F)n6)CC5)CC4)cccc23)C(=O)N1` (some centres unmarked) [Hydrochloride of WX028], for which, at IKZF1, the DC50 amounted to 0.0267 µM and the greatest degradation seen (Dmax) came to 49.7%. In the assay with OCI-LY10, the pIC50 was 7.07 and the Maximum inhibition rate came out at 99.01%.

In the assay on OCI-LY10, `O=C1CCC(c2coc3ccc4c(NC(=O)CN5CCN(C[C@H]6CC[C@H](n7cc(NC(=O)c8coc(-c9ccnc(NCC%10CC%10)c9)n8)c(C(F)F)n7)CC6)CC5)cccc4c23)C(=O)N1` (some centres unmarked) [Trifluoroacetate of WX011] had a pIC50 of 7.77 and a Maximum inhibition rate of 93.42%.
